Measurements: US9708314B2, “Heterocyclic amide compound” (NISSAN CHEMICAL INDUSTRIES, LTD., priority 2013, dated 2017)

Legend:
Assay type in all cases: in vivo
[1] = system: directly sowed Oryza sativa; assay: Test Example 4: effect on crop by application to foliage (diluvial soil, plastic box); settings: for b: effect on crop, directly sowed Oryza sativa: application to foliage, application herbicide amount 320 g/ha
Summary of the method: (§1)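 Greenhouse plants (25° C. to 30° C., 14 d, diluvial soil) receive a foliar spray of water-diluted emulsifiable formulation at defined g/ha. Grading after 3 weeks uses a six-step herbicidal-ratio scale, with 4 covering 70% to <90% and 1 covering 5% to <20%.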

[2] = system: Triticum aestivum; assay: as above; settings: for e: effect on crop, Triticum aestivum: application to foliage, application herbicide amount 320 g/ha
Summary of the method: as §1

[3] = system: Zea mays; assay: as above; settings: for c: effect on crop, Zea mays: application to foliage, application herbicide amount 320 g/ha
Summary of the method: as §1

[4] = system: Beta vulgaris ssp. vulgaris; assay: as above; settings: for f: effect on crop, Beta vulgaris ssp. vulgaris: application to foliage, application herbicide amount 320 g/ha
Summary of the method: as §1

[5] = system: Glycine max; assay: as above; settings: for d: effect on crop, Glycine max: application to foliage, application herbicide amount 320 g/ha
Summary of the method: as §1

[6] = system: Brassica campestris L.; assay: as above; settings: for g: effect on crop, Brassica campestris L.: application to foliage, application herbicide amount 320 g/ha
Summary of the method: as §1

[7] = system: directly sowed Oryza sativa; assay: Test Example 3: effect on crop by application to foliage (Wagner pot, water depth 0.1-0.5 cm); settings: Nineteenth Table; application to foliage; application herbicide amount 320 g/ha
Summary of the method: (§2)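 Seeds were sown in alluvial soil in Wagner pots, grown for 14 days at 25–30 °C, then sprayed uniformly on foliage with the emulsified compound diluted to a given rate per hectare. Injury was graded three weeks after treatment from 0 (≤5%) to 5 (≥90%).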

[8] = system: Apera spica-venti.; assay: Test Example 4: herbicidal effect by application to foliage (diluvial soil, plastic box); settings: for L: herbicidal effect on Apera spica-venti.: application to foliage, application herbicide amount 320 g/ha
Summary of the method: as §1

[9] = system: Alopecurus myosuroides; assay: as above; settings: for J: herbicidal effect on Alopecurus myosuroides: application to foliage, application herbicide amount 320 g/ha
Summary of the method: as §1

[10] = system: Abutilon theophrasti; assay: as above; settings: for M: herbicidal effect on Abutilon theophrasti: application to foliage, application herbicide amount 320 g/ha
Summary of the method: as §1

[11] = system: Amaranthus retroflexus; assay: as above; settings: for N: herbicidal effect on Amaranthus retroflexus: application to foliage, application herbicide amount 320 g/ha
Summary of the method: as §1

[12] = system: Avena fatua; assay: as above; settings: for I: herbicidal effect on Avena fatua: application to foliage, application herbicide amount 320 g/ha
Summary of the method: as §1

[13] = system: Chenopodium album; assay: as above; settings: for O: herbicidal effect on Chenopodium album: application to foliage, application herbicide amount 320 g/ha
Summary of the method: as §1

[14] = system: Veronica persica; assay: as above; settings: for R: herbicidal effect on Veronica persica: application to foliage, application herbicide amount 320 g/ha
Summary of the method: as §1

[15] = system: Digitaria ciliaris; assay: as above; settings: for F: herbicidal effect on Digitaria ciliaris: application to foliage, application herbicide amount 320 g/ha
Summary of the method: as §1

[16] = system: Setaria viridis; assay: as above; settings: for G: herbicidal effect on Setaria viridis: application to foliage, application herbicide amount 320 g/ha
Summary of the method: as §1

[17] = system: Echinochloa crus-galli var. crus-galli; assay: as above; settings: for H: herbicidal effect on Echinochloa crus-galli var. crus-galli: application to foliage, application herbicide amount 320 g/ha
Summary of the method: as §1

[18] = system: Galium spurium; assay: as above; settings: for Q: herbicidal effect on Galium spurium: application to foliage, application herbicide amount 320 g/ha
Summary of the method: as §1

[19] = system: Stellaria media; assay: as above; settings: for P: herbicidal effect on Stellaria media: application to foliage, application herbicide amount 320 g/ha
Summary of the method: as §1

[20] = system: Lolium multiflorum Lam.; assay: as above; settings: for K: herbicidal effect on Lolium multiflorum Lam.: application to foliage, application herbicide amount 320 g/ha
Summary of the method: as §1

[21] = system: Cyperus difformis; assay: Test Example 3: herbicidal effect by application to foliage (Wagner pot, water depth 0.1-0.5 cm); settings: Nineteenth Table; application to foliage; application herbicide amount 320 g/ha
Summary of the method: as §2

[22] = system: Echinochloa crus-galli var. crus-galli; assay: as above; settings: Nineteenth Table; application to foliage; application herbicide amount 320 g/ha
Summary of the method: as §2

[23] = system: Leptochloa chinensis; assay: as above; settings: Nineteenth Table; application to foliage; application herbicide amount 320 g/ha
Summary of the method: as §2

Row | Compound | b: effect on crop, directly sowed Oryza sativa [1] | e: effect on crop, Triticum aestivum [2] | c: effect on crop, Zea mays [3] | f: effect on crop, Beta vulgaris ssp. vulgaris [4] | d: effect on crop, Glycine max [5] | g: effect on crop, Brassica campestris L. [6] | b (effect on crop grade) [7] | L: herbicidal effect on Apera spica-venti. [8] | J: herbicidal effect on Alopecurus myosuroides [9] | M: herbicidal effect on Abutilon theophrasti [10] | N: herbicidal effect on Amaranthus retroflexus [11] | I: herbicidal effect on Avena fatua [12] | O: herbicidal effect on Chenopodium album [13] | R: herbicidal effect on Veronica persica [14] | F: herbicidal effect on Digitaria ciliaris [15] | G: herbicidal effect on Setaria viridis [16] | H: herbicidal effect on Echinochloa crus-galli var. crus-galli [17] | E (herbicidal effect grade) [21] | H (herbicidal effect grade) [22] | D (herbicidal effect grade) [23] | further results
1 | CCOCc1nnc2c(C(=O)Nc3nnnn3C)ccc(C(F)(F)F)n12 [2-026] | 5 (Herbicidal ratio of 90% or more (almost completely withered)) | 3 (Herbicidal ratio of 40% or more and less than 70%) | 2 (Herbicidal ratio of 20% or more and less than 40%) | 5 (Herbicidal ratio of 90% or more (almost completely withered)) | 5 (Herbicidal ratio of 90% or more (almost completely withered)) | 5 (Herbicidal ratio of 90% or more (almost completely withered)) | 5 (Herbicidal ratio of 90% or more (almost completely withered)) | 3 (Herbicidal ratio of 40% or more and less than 70%) | 4 (Herbicidal ratio of 70% or more and less than 90%) | 5 (Herbicidal ratio of 90% or more (almost completely withered)) | 5 (Herbicidal ratio of 90% or more (almost completely withered)) | 3 (Herbicidal ratio of 40% or more and less than 70%) | 5 (Herbicidal ratio of 90% or more (almost completely withered)) | 5 (Herbicidal ratio of 90% or more (almost completely withered)) | 5 (Herbicidal ratio of 90% or more (almost completely withered)) | 4 (Herbicidal ratio of 70% or more and less than 90%) | 5 (Herbicidal ratio of 90% or more (almost completely withered)) | 5 (Herbicidal ratio of 90% or more (almost completely withered)) | 5 (Herbicidal ratio of 90% or more (almost completely withered)) | 5 (Herbicidal ratio of 90% or more (almost completely withered)) | Q: herbicidal effect on Galium spurium [18]: 4 (Herbicidal ratio of 70% or more and less than 90%); P: herbicidal effect on Stellaria media [19]: 5 (Herbicidal ratio of 90% or more (almost completely withered)); K: herbicidal effect on Lolium multiflorum Lam. [20]: 3 (Herbicidal ratio of 40% or more and less than 70%)
2 | Cn1nnnc1NC(=O)c1ccc(C(F)(F)F)n2c(C(C)(C)C)nnc12 [2-027] | 4 (Herbicidal ratio of 70% or more and less than 90%) | 3 (Herbicidal ratio of 40% or more and less than 70%) | 0 (Herbicidal ratio of 5% or less (almost no effect)) | 5 (Herbicidal ratio of 90% or more (almost completely withered)) | 1 (Herbicidal ratio of 5% or more and less than 20%) | 4 (Herbicidal ratio of 70% or more and less than 90%) | 5 (Herbicidal ratio of 90% or more (almost completely withered)) | 4 (Herbicidal ratio of 70% or more and less than 90%) | 4 (Herbicidal ratio of 70% or more and less than 90%) | 5 (Herbicidal ratio of 90% or more (almost completely withered)) | 5 (Herbicidal ratio of 90% or more (almost completely withered)) | 3 (Herbicidal ratio of 40% or more and less than 70%) | 5 (Herbicidal ratio of 90% or more (almost completely withered)) | 5 (Herbicidal ratio of 90% or more (almost completely withered)) | 5 (Herbicidal ratio of 90% or more (almost completely withered)) | 5 (Herbicidal ratio of 90% or more (almost completely withered)) | 5 (Herbicidal ratio of 90% or more (almost completely withered)) | 5 (Herbicidal ratio of 90% or more (almost completely withered)) | 5 (Herbicidal ratio of 90% or more (almost completely withered)) | 5 (Herbicidal ratio of 90% or more (almost completely withered)) | Q: herbicidal effect on Galium spurium [18]: 4 (Herbicidal ratio of 70% or more and less than 90%); P: herbicidal effect on Stellaria media [19]: 5 (Herbicidal ratio of 90% or more (almost completely withered)); K: herbicidal effect on Lolium multiflorum Lam. [20]: 3 (Herbicidal ratio of 40% or more and less than 70%)
3 | Cn1nnnc1NC(=O)c1ccc(C(F)(F)F)n2c(C3=NOC(C)(C)C3)nnc12 [2-028] | – | – | – | – | – | – | 5 (Herbicidal ratio of 90% or more (almost completely withered)) | – | – | – | – | – | – | – | – | – | – | 5 (Herbicidal ratio of 90% or more (almost completely withered)) | 5 (Herbicidal ratio of 90% or more (almost completely withered)) | 5 (Herbicidal ratio of 90% or more (almost completely withered)) | d (directly sowed Oryza sativa) effect on crop grade ([1]; foliage application, 320 g/ha): 4 (Herbicidal ratio of 70% or more and less than 90%); e (Triticum aestivum) effect on crop grade ([2]; foliage application, 320 g/ha): 4 (Herbicidal ratio of 70% or more and less than 90%); b (Zea mays) effect on crop grade ([3]; foliage application, 320 g/ha): 5 (Herbicidal ratio of 90% or more (almost completely withered)); f (Beta vulgaris ssp. vulgaris) effect on crop grade ([4]; foliage application, 320 g/ha): 5 (Herbicidal ratio of 90% or more (almost completely withered)); c (Glycine max) effect on crop grade ([5]; foliage application, 320 g/ha): 3 (Herbicidal ratio of 40% or more and less than 70%); g (Brassica campestris L.) effect on crop grade ([6]; foliage application, 320 g/ha): 5 (Herbicidal ratio of 90% or more (almost completely withered)); L (Apera spica-venti.) herbicidal effect grade ([8]; foliage application, 320 g/ha): 5 (Herbicidal ratio of 90% or more (almost completely withered)); J (Alopecurus myosuroides) herbicidal effect grade ([9]; foliage application, 320 g/ha): 4 (Herbicidal ratio of 70% or more and less than 90%); M (Abutilon theophrasti) herbicidal effect grade ([10]; foliage application, 320 g/ha): 5 (Herbicidal ratio of 90% or more (almost completely withered)); N (Amaranthus retroflexus) herbicidal effect grade ([11]; foliage application, 320 g/ha): 5 (Herbicidal ratio of 90% or more (almost completely withered)); I (Avena fatua) herbicidal effect grade ([12]; foliage application, 320 g/ha): 4 (Herbicidal ratio of 70% or more and less than 90%); O (Chenopodium album) herbicidal effect grade ([13]; foliage application, 320 g/ha): 5 (Herbicidal ratio of 90% or more (almost completely withered)); R (Veronica persica) herbicidal effect grade ([14]; foliage application, 320 g/ha): 5 (Herbicidal ratio of 90% or more (almost completely withered)); F (Digitaria ciliaris) herbicidal effect grade ([15]; foliage application, 320 g/ha): 5 (Herbicidal ratio of 90% or more (almost completely withered)); G (Setaria viridis) herbicidal effect grade ([16]; foliage application, 320 g/ha): 5 (Herbicidal ratio of 90% or more (almost completely withered)); H (Echinochloa crus-galli var. crus-galli) herbicidal effect grade ([17]; foliage application, 320 g/ha): 5 (Herbicidal ratio of 90% or more (almost completely withered)); Q (Galium spurium) herbicidal effect grade ([18]; foliage application, 320 g/ha): 4 (Herbicidal ratio of 70% or more and less than 90%); P (Stellaria media) herbicidal effect grade ([19]; foliage application, 320 g/ha): 5 (Herbicidal ratio of 90% or more (almost completely withered)); K (Lolium multiflorum Lam.) herbicidal effect grade ([20]; foliage application, 320 g/ha): 4 (Herbicidal ratio of 70% or more and less than 90%)
